# Source: patent US7109380B2, “Cyclopentenedione antifungal compounds and methods for their use” (The University of Mississippi, priority 2004, dated 2006)
# pIC50: −log10 of the molar value.
# Experiments:
# C. albicans ATCC 90028 = assay: In vitro antimicrobial assay (modified NCCLS), Candida media pH 4.5; assay type: cell-based, Candida albicans; conditions: Candida albicans
# C. krusei ATCC 6258 = assay: as above; assay type: cell-based, Candida krusei; conditions: Pichia kudriavzevii, ATCC6258, pH 4.5, read-out: IC50 (50% inhibitory concentration)
# Botrytis cinerea = assay: 96-well microtiter fungal growth assay; assay type: cell-based;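 for Mean percent fungal growth inhibition of Botrytis cinerea: percent relative to untreated positive growth controls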
# Source text: (§1) Pathogen collection. Isolates of Colletotrichum acutatum Simmonds, Colletotrichum fragariae Brooks, and Colletotrichum gloeosporioides (Penz.) Penz. & Sacc. in Penz. were obtained from B. J. Smith, USDA, ARS, Small Fruit Research Station, Poplarville, Mass. Colletotrichum fragariae (isolate CF63), C. acutatum (isolate CAGoff), and C. gloeosporioides (isolate CG162) were used for all pathogen and bioautography studies. Isolate CF63 is one of the most virulent isolates at infecting strawberry plants and inducing both crown and fruit rot (Smith and Black, 1990). CF63, CAGoff, and CG162 were used as standard test isolates because of our extensive knowledge of these isolates and their known fungicide sensitivity profiles in both bioautography and microtiter formats. The three Colletotrichum species were isolated from strawberry (Fragaria xananassa Duchesne). Botrytis cinerea Pers.:Fr, was isolated from commercial grape (Vitis vinifera L.) and Fusarium oxysporum Schlechtend:Fr from orchid (Cynoches sp.) by David E. Wedge, USDA ARS Natural Products Utilization Research Unit. Phomopsis viticola (Sacc.) and P. obscurans (Ellis & Everh.) Sutton were from Mike A. Ellis, Ohio State University, Wooster, Ohio. Fungi were grown on potato-dextrose agar (PDA, Difco, Detroit Mich.) in 9 cm petri dishes and incubated in a growth chamber at 24±2° C. and under cool-white fluorescent lights ([…]·m^−2·sec^−1 light) with 12-h photoperiod.
# (§2) Inoculum preparation. Conidia were harvested from 7–10 day-old cultures by flooding plates with 5 mL of sterile distilled water and dislodging conidia by softly brushing the colonies with an L-shaped glass rod. Conidial suspensions were filtered through sterile miracloth (Calbiochem-Novabiochem Corp., La Jolla Calif.) to remove mycelia. Conidia concentrations were determined photometrically, from a standard curve based on the absorbance at 625 nm and suspensions were then adjusted with sterile distilled water to a concentration of 1.0×10^6 conidia/mL.
# (§3) Microtiter assay. A standardized 96-well microtiter plate assay developed for discovery of natural product fungicidal agents. A 96-well microtiter assay was used to determine sensitivity of B. cinerea, C. acutatum, C. fragariae, C. gloeosporioides, F. oxysporum, Phomopsis viticola, and P. obscurans to the various antifungal agents in comparison with known fungicidal standards. Vinclozolin, captan, and thiabendazole, which represent three different modes of action, were used as standards in this experiment. Each fungus was challenged in a dose-response format using test compounds where the final treatment concentrations were 0.3, 3.0 and 30.0 μM. Microtiter plates (Nunc MicroWell, untreated; Roskilde, Denmark) were covered with a plastic lid and incubated in a growth chamber at 24±1 C and 12 h photoperiod under 60±5 μmol light. Growth was then evaluated by measuring absorbance of each well at 620 nm using a microplate photometer (Packard Spectra Count, Packard Instrument Co., Downers Grove, Ill.).
# (§4) Microbioassay Experimental Design. Chemical sensitivity of each fungus 96-well microtiter assay is used to determine sensitivity of B. cinerea, C. acutatum, C. fragariae, C. gloeosporioides, F. oxysporum, Phomopsis viticola, and P. obscurans. Each chemical is evaluated in duplicate at each dose (0.3, 3.0 and 30.0 μM) and repeated twice in time. Sixteen wells containing broth and inoculum serves as positive controls, eight wells containing solvent at the appropriate concentration and broth without inoculum are used as negative controls. Mean absorbance values and standard errors is used to evaluate fungal growth at 48 hrs and 72 hrs except for P. obscurans and P. viticola the data are recorded at 120 hrs. […] Treatments are arranged as a split-plot design replicated twice in time. Whole-plots were fungal isolates and sub-plots are chemicals. Each dose level and response time is analyzed separately. […]
# Colletotrichum acutatum = assay: 96-well microtiter fungal growth assay; assay type: cell-based;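 for Mean percent fungal growth inhibition of Colletotrichum acutatum: percent relative to untreated positive growth controls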
# Source text: as §1, §2, §3, §4
# Colletotrichum fragariae = assay: 96-well microtiter fungal growth assay; assay type: cell-based;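 for Mean percent fungal growth inhibition of Colletotrichum fragariae: percent relative to untreated positive growth controls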
# Source text: as §1, §2, §3, §4
# [1] = tested on: Colletotrichum gloeosporioides; assay: 96-well microtiter fungal growth assay; assay type: cell-based;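 for Mean percent fungal growth inhibition of Colletotrichum gloeosporoides: percent relative to untreated positive growth controls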
# Source text: as §1, §2, §3, §4
# Fusarium oxysporum = assay: 96-well microtiter fungal growth assay; assay type: cell-based;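 for Mean percent fungal growth inhibition of Fusarium oxysporum: percent relative to untreated positive growth controls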
# Source text: as §1, §2, §3, §4
# Phomopsis obscurans = assay: 96-well microtiter fungal growth assay; assay type: cell-based
# Source text: as §1, §2, §3
# (§5) Microbioassay Experimental Design. Chemical sensitivity of each fungus 96-well microtiter assay is used to determine sensitivity of B. cinerea, C. acutatum, C. fragariae, C. gloeosporioides, F. oxysporum, Phomopsis viticola, and P. obscurans. Each chemical is evaluated in duplicate at each dose (0.3, 3.0 and 30.0 μM) and repeated twice in time. Sixteen wells containing broth and inoculum serves as positive controls, eight wells containing solvent at the appropriate concentration and broth without inoculum are used as negative controls. […] Treatments are arranged as a split-plot design replicated twice in time. Whole-plots were fungal isolates and sub-plots are chemicals. Each dose level and response time is analyzed separately. The SAS system's analysis of variance procedure (Statistical Analysis System, Cary, N.C.) is used to identify significant factors and Fisher's protected LSD is used to separate means.
# Phomopsis viticola = assay: 96-well microtiter fungal growth assay; assay type: cell-based;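 for Mean percent fungal growth inhibition of Phomopsis viticola: percent relative to untreated positive growth controls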
# Source text: as §1, §2, §3, §5
smiles,measurement,setting,value
"COC(/C=C/c1ccccc1)=C1\C(=O)C=C(C)C1=O [Compound 1, coruscanone A]",IC50,"C. albicans ATCC 90028; ATCC90028, pH 4.5, read-out: IC50 (50% inhibitory concentration)",0.2 µg/mL
same,MFC,"C. albicans ATCC 90028; ATCC90028, C. albicans ATCC 90028, pH 4.5, Table 3, read-out: MFC",0.63 µg/mL
same,MIC,"C. albicans ATCC 90028; ATCC90028, C. albicans ATCC 90028, pH 4.5, Table 3, read-out: MIC",0.31 µg/mL
same,IC50,C. krusei ATCC 6258,2.5 µg/mL
same,Mean percent fungal growth inhibition of Botrytis cinerea,"Botrytis cinerea; 0.3 μm, 48 hrs",−7.3 ± 12.8%
same,Mean percent fungal growth inhibition of Botrytis cinerea,"Botrytis cinerea; 0.3 μm, 72 hrs",28.1 ± 8.3%
same,Mean percent fungal growth inhibition of Botrytis cinerea,"Botrytis cinerea; 3.0 μm, 48 hrs",−45.2 ± 16.4%
same,Mean percent fungal growth inhibition of Botrytis cinerea,"Botrytis cinerea; 3.0 μm, 72 hrs",−15.7 ± 10.6%
same,Mean percent fungal growth inhibition of Botrytis cinerea,"Botrytis cinerea; 30 μm, 48 hrs",−69.6 ± 9.8%
same,Mean percent fungal growth inhibition of Botrytis cinerea,"Botrytis cinerea; 30 μm, 72 hrs",−88.4 ± 5.6%
same,pIC50,"Botrytis cinerea; Botrytis cinerea, 48 h, read-out: IC50 (growth inhibition)",> 5.81
same,Mean percent fungal growth inhibition of Colletotrichum acutatum,"Colletotrichum acutatum; 0.3 μm, 48 hrs",49.7 ± 6.6%
same,Mean percent fungal growth inhibition of Colletotrichum acutatum,"Colletotrichum acutatum; 0.3 μm, 72 hrs",38.0 ± 3.0%
same,Mean percent fungal growth inhibition of Colletotrichum acutatum,"Colletotrichum acutatum; 3.0 μm, 48 hrs",−73.1 ± 4.9%
same,Mean percent fungal growth inhibition of Colletotrichum acutatum,"Colletotrichum acutatum; 3.0 μm, 72 hrs",−21.8 ± 4.4%
same,Mean percent fungal growth inhibition of Colletotrichum acutatum,"Colletotrichum acutatum; 30 μm, 48 hrs",−95.8 ± 1.9%
same,Mean percent fungal growth inhibition of Colletotrichum acutatum,"Colletotrichum acutatum; 30 μm, 72 hrs",−97.6 ± 0.8%
same,pIC50,"Colletotrichum acutatum; Colletotrichum acutatum, C. acutatum, 96-well microbioassay, read-out: IC50 (growth inhibition)",> 5.51
same,Mean percent fungal growth inhibition of Colletotrichum fragariae,"Colletotrichum fragariae; 0.3 μm, 48 hrs",−14.1 ± 10.8%
same,Mean percent fungal growth inhibition of Colletotrichum fragariae,"Colletotrichum fragariae; 0.3 μm, 72 hrs",−4.8 ± 5.0%
same,Mean percent fungal growth inhibition of Colletotrichum fragariae,"Colletotrichum fragariae; 3.0 μm, 48 hrs",−94.0 ± 1.9%
same,Mean percent fungal growth inhibition of Colletotrichum fragariae,"Colletotrichum fragariae; 3.0 μm, 72 hrs",−54.6 ± 18.7%
same,Mean percent fungal growth inhibition of Colletotrichum fragariae,"Colletotrichum fragariae; 30 μm, 48 hrs",−96.9 ± 1.9%
same,Mean percent fungal growth inhibition of Colletotrichum fragariae,"Colletotrichum fragariae; 30 μm, 72 hrs",−67.4 ± 18.3%
same,pIC50,"Colletotrichum fragariae; Colletotrichum fragariae, C. fragariae, 96-well microbioassay, read-out: IC50 (growth inhibition)",> 5.51
same,Mean percent fungal growth inhibition of Colletotrichum gloeosporoides,"[1]; 0.3 μm, 48 hrs",37.7 ± 9.0%
same,Mean percent fungal growth inhibition of Colletotrichum gloeosporoides,"[1]; 0.3 μm, 72 hrs",46.7 ± 3.9%
same,Mean percent fungal growth inhibition of Colletotrichum gloeosporoides,"[1]; 3.0 μm, 48 hrs",−79.9 ± 2.8%
same,Mean percent fungal growth inhibition of Colletotrichum gloeosporoides,"[1]; 3.0 μm, 72 hrs",−13.8 ± 3.7%
same,Mean percent fungal growth inhibition of Colletotrichum gloeosporoides,"[1]; 30 μm, 48 hrs",−95.2 ± 2.2%
same,Mean percent fungal growth inhibition of Colletotrichum gloeosporoides,"[1]; 30 μm, 72 hrs",−94.4 ± 1.6%
same,pIC50,"[1]; Colletotrichum gloeosporioides, C. gleoesporioides, 96-well microbioassay, read-out: IC50 (growth inhibition)",> 5.51
same,Mean percent fungal growth inhibition of Fusarium oxysporum,"Fusarium oxysporum; 0.3 μm, 48 hrs",2.4 ± 4.7%
same,Mean percent fungal growth inhibition of Fusarium oxysporum,"Fusarium oxysporum; 0.3 μm, 72 hrs",12.2 ± 2.1%
same,Mean percent fungal growth inhibition of Fusarium oxysporum,"Fusarium oxysporum; 3.0 μm, 48 hrs",−76.9 ± 1.6%
same,Mean percent fungal growth inhibition of Fusarium oxysporum,"Fusarium oxysporum; 3.0 μm, 72 hrs",−24.2 ± 3.3%
same,Mean percent fungal growth inhibition of Fusarium oxysporum,"Fusarium oxysporum; 30 μm, 48 hrs",−99.3 ± 0.2%
same,Mean percent fungal growth inhibition of Fusarium oxysporum,"Fusarium oxysporum; 30 μm, 72 hrs",−98.9 ± 0.2%
same,pIC50,"Fusarium oxysporum; Fusarium oxysporum, F. oxysporum, 96-well microbioassay, read-out: IC50 (growth inhibition)",> 4.90
same,Percent change in fungal growth vs control (negative = inhibition),"Phomopsis obscurans; 0.3 μm, 120 hrs",3.3 ± 19.9%
same,Percent change in fungal growth vs control (negative = inhibition),"Phomopsis obscurans; 0.3 μm, 144 hrs",33.3 ± 41.6%
same,Percent change in fungal growth vs control (negative = inhibition),"Phomopsis obscurans; 3.0 μm, 120 hrs",−37.4 ± 25.0%
same,Percent change in fungal growth vs control (negative = inhibition),"Phomopsis obscurans; 3.0 μm, 144 hrs",−13.3 ± 36.0%
same,Percent change in fungal growth vs control (negative = inhibition),"Phomopsis obscurans; 30 μm, 120 hrs",−88.5 ± 3.4%
same,Percent change in fungal growth vs control (negative = inhibition),"Phomopsis obscurans; 30 μm, 144 hrs",−96.9 ± 1.2%
same,pIC50,"Phomopsis obscurans; Paraphomopsis obscurans, Phomopis obscurans, at 120 hr, read-out: IC50 (growth inhibition)",> 5.51
same,Mean percent fungal growth inhibition of Phomopsis viticola,"Phomopsis viticola; 0.3 μm, 120 hrs",7.4 ± 124.1%
same,Mean percent fungal growth inhibition of Phomopsis viticola,"Phomopsis viticola; 0.3 μm, 144 hrs",423.2 ± 185.3%
same,Mean percent fungal growth inhibition of Phomopsis viticola,"Phomopsis viticola; 3.0 μm, 120 hrs",−71.1 ± 50.9%
same,Mean percent fungal growth inhibition of Phomopsis viticola,"Phomopsis viticola; 3.0 μm, 144 hrs",−71.3 ± 15.7%
same,Mean percent fungal growth inhibition of Phomopsis viticola,"Phomopsis viticola; 30 μm, 120 hrs",−61.8 ± 86.8%
same,Mean percent fungal growth inhibition of Phomopsis viticola,"Phomopsis viticola; 30 μm, 144 hrs",−79.1 ± 13.3%
same,pIC50,"Phomopsis viticola; Diaporthe ampelina, 72 h, read-out: IC50 (growth inhibition)",> 5.81
